This is an account of results in US20040167189A1, “Materials and methods for inhibiting Wip1” (The Government of the U.S.A., as Represented by the …, priority 2002, published 2004).

For series [1], the target named is recombinant Wip1 (Homo sapiens, UniProt O15297). Particulars: for relative effectiveness as Wip1 inhibitor (in words): at the concentration of 0.25 μM.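 On all read-outs here: recombinant His-tagged Wip1 dephosphorylating a phosphoserine peptide for 1 h at 30 °C, read by fluorescence quench (ex 560, em 590 nm), signal rising with dephosphorylation, DMSO-only reactions as control.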
Source text: Phosphatase activity of Wip1 was monitored with IQ™ Phosphatase Assay Kit (Pierce, Rockford, Ill.). […] At the end of phosphatase reaction, the labeled peptide population contains a mixture of phosphorylated and nonphosphorylated peptide species. The iron-containing compound binds specifically to the phosphorylated peptide present and its fluorescence is quenched. The observed relative fluorescence units increase in proportion to the extent of dephosphorylation of the phosphopeptide. The standard phosphatase assay was performed by incubating 0.2 μg recombinant Wip1 in the buffer, containing 20 mM MOPS, pH 7.0, 20 mM MgCl2, and 30 μM of phosphoserine peptide substrate (LRRApSLG) at 30° C. for 1 hour. The reaction was terminated by addition of 60 μl IQ™ Working Solution. Fluorescent intensity was measured on the Fluorometer at 560/590 ex/em. Compounds (2 ml) from a chemical library of potential Wip1 inhibitors dissolved in 50% DMSO were added to fmal concentration of 10, 1, 0.5, or 0.2 μM. Control reactions contained only 6% DMSO.
Wip1 activity was measured in the presence of 1990 chemical compounds, 10 μM final concentration each.
The test system of series [2] is phosphatase PP2A.
In series [3] the target is T1, phosphoserine peptide substrate (LRRApSLG).
T1 chain: LRRASLG

Where [4] appears, read: compound at 0.25 μm, DMSO control 740.
The mark [5] stands for this setting: compound at 0.5 μm, DMSO control 740.
The mark [6] stands for this setting: compound at 1 μm, DMSO control 725.
The mark [7] stands for this setting: compound at 10 μm, DMSO control 1400.

Several values for one entry are separate records, joined by “and”; a condition that tells them apart may be missing. Equal values may be shown once. Read-outs that look alike come from different tables or passages of the source.

Regarding `O=[N+]([O-])c1ccc(S(=O)(=O)Cc2ccccc2)c2nonc12` [Compound A], the “Wip1 Activity” value turned out to be 745 light units @ 590 nm in series [1] (setting [4]), 725 light units @ 590 nm in series [1] (setting [5]), 250 light units @ 590 nm in series [1] (setting [6]) and 0 light units @ 590 nm in series [1] (setting [7]).

As for `O=C(O)C=Cc1ccc[c]([Sb](=[O])([OH])[OH])c1` [Compound B], the “Wip1 Activity” value in series [1] (setting [4]) turned out to be 740 light units @ 590 nm; in series [1] (setting [5]) it was 723 light units @ 590 nm; in series [1] (setting [6]), 575 light units @ 590 nm; in series [1] (setting [7]) it was 0 light units @ 590 nm.

On to `Nc1nc(Sc2ccc([N+](=O)[O-])c3nonc23)c2nc[nH]c2n1` [Compound C], for which the “Wip1 Activity” value amounted to 745 light units @ 590 nm in series [1] (setting [4]), 750 light units @ 590 nm in series [1] (setting [5]), 610 light units @ 590 nm in series [1] (setting [6]) and 0 light units @ 590 nm in series [1] (setting [7]).

In the case of `CN(C)CN1CSC(=S)N(CN(C)C)C1` [Compound D], the “Wip1 Activity” value came out at 750 light units @ 590 nm in series [1] (setting [4]), 740 light units @ 590 nm in series [1] (setting [5]), 595 light units @ 590 nm in series [1] (setting [6]) and 0 light units @ 590 nm in series [1] (setting [7]).

As for `CC(=NN=C([S-])SCc1ccccc1)c1ccccn1.[Cl-].[Cu+2]` [Compound F], the “Wip1 Activity” value is listed as 740 light units @ 590 nm in series [1] (setting [4]), 695 light units @ 590 nm in series [1] (setting [5]), 100 light units @ 590 nm in series [1] (setting [6]) and 0 light units @ 590 nm in series [1] (setting [7]).

`Nc1nc([S][Hg][c]2cc([N+](=O)[O-])ccc2O)c2ncn(C3OC(CO)C(O)C3O)c2n1` (centres unmarked) [Compound H]: the “Wip1 Activity” value was 675 light units @ 590 nm in series [1] (setting [4]), 690 light units @ 590 nm in series [1] (setting [5]), 225 light units @ 590 nm in series [1] (setting [6]) and 0 light units @ 590 nm in series [1] (setting [7]).

On to `O=C(O)c1c(Br)c(Br)c(Br)c(Br)c1C1c2ccc(O)cc2Oc2cc(O)ccc21` [Compound I], for which the “Wip1 Activity” value in series [1] (setting [4]) amounted to 625 light units @ 590 nm; in series [1] (setting [5]) it was 710 light units @ 590 nm; in series [1] (setting [6]), 250 light units @ 590 nm; in series [1] (setting [7]), 0 light units @ 590 nm.

As for `O=C(O)c1cc[c]([Hg][S]c2ncnc3nc[nH]c23)cc1` [Compound K], the “Wip1 Activity” value in series [1] (setting [4]) is reported as 630 light units @ 590 nm; in series [1] (setting [5]), 680 light units @ 590 nm; in series [1] (setting [6]), 300 light units @ 590 nm; in series [1] (setting [7]), 0 light units @ 590 nm.

As to `CC1=C(Br)C(=O)C(C)=C(Br)C1=O` [Compound L], the “activity of Wip1 in the presence of compound (in words)” value in series [1] (1 μM final concentration) is given as “nearly not detectable”. In addition, the “Phosphatase Activity (Wip1)” value in series [1] (Compound L at 1 μM final concentration, DMSO control 500) was 5 light units @ 590 nm. The “relative effectiveness as Wip1 inhibitor (in words)” value in series [1] is recorded as “most effective inhibitors”. For the same molecule, the “Wip1 Activity” value in series [1] (setting [4]) is recorded as 375 light units @ 590 nm; in series [1] (setting [5]), 220 light units @ 590 nm; in series [1] (setting [6]), 60 light units @ 590 nm; in series [1] (setting [7]), 0 light units @ 590 nm. Moreover, in series [2] (1 μM final concentration), the “decrease of the activity of PP2A” value was 5%. Moreover, the “Phosphatase Activity (PP2A)” value in series [2] (Compound L at 1 μM final concentration, DMSO control 760) is given as 690 light units @ 590 nm.

With `Nc1cc[c]([Hg][S]c2nc(N)nc3c2ncn3C2OC(CO)C(O)C2O)cc1` (centres unmarked) [Compound M], in series [1], the “relative effectiveness as Wip1 inhibitor (in words)” value is “most effective inhibitors”. Further, the “Wip1 Activity” value stood at 525 light units @ 590 nm in series [1] (setting [4]), 400 light units @ 590 nm in series [1] (setting [5]), 145 light units @ 590 nm in series [1] (setting [6]) and 0 light units @ 590 nm in series [1] (setting [7]).

As to `O=C1C(Cl)=C(Nc2ccc(S(=O)(=O)Nc3ccccn3)cc2)C(=O)c2ccccc21` [Compound N], the “Wip1 Activity” value in series [1] was 645 light units @ 590 nm and 710 light units @ 590 nm and 550 light units @ 590 nm; in series [1] (setting [7]), 0 light units @ 590 nm.

B1: recombinant full-size human Wip1 enzyme with His-Tag on the NH2 terminus (protein)
chain: MAGLYSLGVSVFSDQGGRKYMEDVTQIVVEPEPTAEEKPSPRRSLSQPLPPRPSPAALPGGEVSGKGPAVAAREARDPLPDAGASPAPSRCCRRRSSVAFFAVCDGHGGREAAQFAREHLWGFIKKQKGFTSSEPAKVCAAIRKGFLACHLAMWKKLAEWPKTMTGLPSTSGTTASVVIIRGMKMYVAHVGDSGVVLGIQDDPKDDFVRAVEVTQDHKPELPKERERIEGLGGSVMNKSGVNRVVWKRPRLTHNGPVRRSTVIDQIPFLAVARALGDLWSYDFFSGEFVVSPEPDTSVHTLDPQKHKYIILGSDGLWNMIPPQDAISMCQDQEEKKYLMGEHGQSCAKMLVNRALGRWRQRMLRADNTSAIVICISPEVDNQGNFTNEDELYLNLTDSPSYNSQETCVMTPSPCSTPPVKSLEEDPWPRVNSKDHIPALVRSNAFSENFLEVSAEIARENVQGVVIPSKDPEPLEENCAKALTLRIHDSLNNSLPIGLVPTNSTNTVMDQKNLKMSTPGQMKAQEIERTPPTNFKRTLEESNSGPLMKKHRRNGLSRSSGAQPASLPTTSQRKNSVKLTMRRRLRGQKKIGNPLLHQHRKTVCVC
In the case of B1, in series [3], the Phosphatase Activity (light units @ 590 nm), DMSO control (light units @ 590 nm) was found to be 500; the Wip1 Activity (light units @ 590 nm), DMSO control (light units @ 590 nm) is 1400 and 725 and 740.
